Like-named read-outs stand apart in the source and are kept apart here.
Experiments:
MM029 cells = experiment: Proliferation assay (IncuCyte cell confluency); format: cell-based, human; conditions: ARV-771 300 nM with dabrafenib 50 nM, trametinib 10 nM, FIG. 9
Procedure: Roughly 400 MM029 cells per well were plated in a 96-well plate and treated with ARV-771 300 nM and/or Dabrafenib 50 nM+Trametinib 10 nM after 24 hours. Cells were imaged using the IncuCyte ZOOM System (Essen Bioscience) and automated cell confluency measurements were made using images taken at 2 hour intervals, for the duration of the experiments. Five technical replicates were averaged and statistical significance was assessed (paired, two-tailed Student's t-test).

TCF4 [1] = experiment: RT-qPCR of TCF4 expression after ARV-771; format: cell-based, human; conditions: MM057 cells; collected 48 hours after plating
Procedure: MM057 cells were plated and treated with the specified dose of ARV-771, as described above 48 hours after plating, cells were collected, resuspended in RA1 lysis buffer using the RNA NucleoSpin extraction kit (Macherey&Nagel) and processed according to manufacturer's instructions. RNA was quantified using a ThermoScientific NanoDrop 1000 and 500 to 2000 ng was reverse transcribed with a High-Capacity cDNA Reverse Transcription Kit (Life Technologies). qPCRs were run using the SensiFAST probe No-ROX kit (Bioline, Cat #BIO-86005) on a Roche Life Science LightCycler 384. Data processing with Biogazelle Qbase+3.1 software relied on normalization with a minimum of two reference genes.

TCF4 locus = experiment: OmniATAC-seq chromatin accessibility; format: cell-based, human; conditions: MM057 cells; ARV-771 100 nM
Procedure: Approximately […] MM057 cells were plated in a 6-well plate and treated with ARV-771 100 nM after 24 hours. Forty eight hours after plating, cells were collected. Nuclei of 50,000 cells were isolated and an Omni-assay for transposase-accessible chromatin using sequencing (OmniATAC-seq) was performed as described previously (Corces et al. 2017, Nat Methods 14:959-962). After final amplification, samples were cleaned up with MinElute (QIAGEN) and libraries were prepared using the KAPA Library Quantification Kit (supplier). Samples were sequenced on an IlluminaNextSeq 500 High Output chip. Briefly, reads were mapped to human genome (GRCh37) using STAR (2.7.1a-foss-2018a). Resulting BAMfiles were cleaned for duplicates using Picard (2.21.8-Java-1.8.0) and indexed. Mitochondrial reads were removed using SAMtools (1.9-20190828-foss-2018a) and BigWig files were created (deepTools/3.3.1-foss-2018a-Python-3.7.4). ATAC-seq peaks were identified and visualized using MACS2 peak calling (2.1.2.1-foss-2018a-Python-2.7.16) with […] BAMPE parameters. Finally, BED files were created from broadPeak files using BEDTools (2.28.0-foss-2018a).

melanoma MES cells = experiment: Bulk RNA sequencing after ARV-771 exposure; format: cell-based, human; conditions: 50 nM ARV-771; for antigen presentation program expression: melanoma MES cells
Procedure: Approximately 2*10^5 cells were plated in a 6-well plate. For knockdown experiments, these were transfected with the described siRNA pool 24 and 72 hours after plating and collected 24 hours after the second transfection. For inducible TCF4 experiments, cells were treated with 2 ng/ml doxycycline (Sigma-Aldrich, Cat #D9891) every 48 hours and collected 96 hours after plating. For ARV-771 experiments, cells were treated with 50 nM ARV-771 (Bioconnect, Cat #HY-100972) 24 hours after plating and collected 96 hours after plating. RNA was extracted using the RNA NucleoSpin extraction kit (Macherey&Nagel) according to the manufacturer's instructions.
The RNA integrity was monitored using Bioanalyzer analysis. 5 ng of RNA per sample was reverse-transcribed and amplified using a modified version of the SMARTseq2 protocol, previously described in Rambow et al. 2018 (Cell 174:843-855.e19). Prior to generating sequencing libraries using the NexteraXT kit (Illumina, Cat #FC-131-10), cDNA profiles were monitored using the Bioanalyzer. Sequencing was performed on a Illumina Nextseq500 platform. Differential gene expression analyses were executed using the DeSeq2 pipeline.

TCF4 [2] = conditions: B cell lymphoma and BPDCN; Jain et al. 2019, Ceribelli et al. 2016; cited from earlier work

Cc1ncsc1-c1ccc([C@H](C)NC(=O)[C@@H]2C[C@@H](O)CN2C(=O)[C@@H](NC(=O)COCCCOCCNC(=O)C[C@@H]2N=C(c3ccc(Cl)cc3)c3c(sc(C)c3C)-n3c(C)nnc32)C(C)(C)C)cc1 [ARV-771]
sensitivity to BRAF- and MEK-inhibition (cell growth) (MM029 cells): increased sensitivity to BRAF- and MEK-inhibition
TCF4 expression (TCF4 [1]): dose-dependent decrease in TCF4 expression
chromatin accessibility upstream of the TCF4 locus (TCF4 locus): decreased chromatin accessibility upstream of the TCF4 locus
expression of genes from the MES signature (melanoma MES cells): strongly downregulated
expression of genes from the MITF-dependent MEL signature (melanoma MES cells): upregulated
transcriptional changes compared with TCF4 silencing (melanoma MES cells): recapitulated most of the transcriptional changes observed upon TCF4 silencing
antigen presentation program expression (melanoma MES cells): upregulated
antigen presentation program expression (melanoma MES cells; listed as ARV-711): unleashes the expression of antigen presentation machinery and HLA-genes
overall transcriptional reprogramming effect upon BET-inhibition (melanoma MES cells; mesenchymal-like vs melanocytic cell lines): far more drastic in mesenchymal-like than in melanocytic cell lines
TCF4 expression (TCF4 [2]): decrease its expression

Source: patent US20260048075A1, “Inhibition of TCF4/ITF2 in the Treatment of Cancer” (VIB VZW, priority 2022, published 2026)
